Patent US5622962A, “5α-reductase inhibitors” (priority 1995, dated 1997)

Columns and labels:
[1] = molecular target: T1, Type I 5α-Reductase from Human Scalp (Homo sapiens, UniProt P18405); experiment: Human Type I 5α-reductase assay (conversion of [3H]-testosterone to 5α-reduced metabolites); assay type: biochemical; settings: 50 nM [3H]-testosterone, pH 7.5, 25°, 180 min, compared to control reaction mixtures; for inhibition at 0.3 µM: pH 7.5, 0.3 μM, read-out: percent inhibition of Type I AR
T1 construct: Scalp punch biopsies from graft recipient sites were obtained from human hair transplant procedures; from tissue; host or cells: human scalp punch biopsies (hair transplant graft recipient sites), homogenate, 100,000×g pellet
T1 sequence (P18405 1-259): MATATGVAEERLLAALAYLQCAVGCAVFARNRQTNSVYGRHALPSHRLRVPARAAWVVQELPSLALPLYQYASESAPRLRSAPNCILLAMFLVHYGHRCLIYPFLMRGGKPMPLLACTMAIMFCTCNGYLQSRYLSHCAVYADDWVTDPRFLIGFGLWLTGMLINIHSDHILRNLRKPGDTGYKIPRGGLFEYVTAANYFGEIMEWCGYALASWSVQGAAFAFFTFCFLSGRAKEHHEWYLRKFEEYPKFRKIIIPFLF

[2] = molecular target: T2, Type II 5α-Reductase from Human Prostate (Homo sapiens, UniProt P31213); experiment: Human Type II 5α-reductase assay (conversion of [3H]-testosterone to 5α-reduced metabolites); assay type: biochemical; settings: sodium acetate pH 5.5, 25°, 30 min, compared to control reaction mixtures; for inhibition at 0.3 µM: pH 5.5, 0.3 μM, read-out: percent inhibition of Type II AR
T2 construct: The same procedure as above was used for preparations using tissue from prostate surgery; from tissue; host or cells: human prostate tissue from surgery, homogenate, 100,000×g pellet
T2 sequence (P31213 1-254): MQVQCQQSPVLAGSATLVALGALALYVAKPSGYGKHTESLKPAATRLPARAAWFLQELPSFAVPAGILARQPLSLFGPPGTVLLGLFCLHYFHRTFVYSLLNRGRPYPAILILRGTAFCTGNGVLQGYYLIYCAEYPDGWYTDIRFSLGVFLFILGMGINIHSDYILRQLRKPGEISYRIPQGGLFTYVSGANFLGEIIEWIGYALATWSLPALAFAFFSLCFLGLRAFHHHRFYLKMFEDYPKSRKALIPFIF

inhibition at 0.3 µM [1] [%] | inhibition at 0.3 µM [2] [%] | percent inhibition of Type II AR ([2]; 0.3 μM) [%] | percent inhibition of Type I AR ([1]; 0.3 μM) [%] | Compound
64 | 28 | – | – | CN1C(=O)CC[C@]2(C)c3ccc(-c4ccc(C(N)=O)cc4)cc3CC[C@@H]12 [Example 213, (+)-(4aR)-(10bR)-4-methyl-8-(4-carboxamidophenyl)-10b-methyl-1,2,3,4,4a,5,6,10b-octahydrobenzo[f]quinolin-3-one]
83 | 30 | – | – | CN1C(=O)CC[C@]2(C)c3ccc(-c4ccc5c6c(cccc46)C(=O)N(CCN4CCOCC4)C5=O)cc3CC[C@@H]12 [Example 234, (+)-(4aR)-(10bR)-4-methyl-8-(2-(2-[1-morpholino]ethyl)-1H-benzo<de>isoquinolin-6-yl-1,3-(2H)dione)-10b-methyl-1,2,3,4,4a,5,6,10b-octahydrobenzo[f]quinolin-3-one]
31 | 20 | – | – | CN1C(=O)CC[C@]2(C)c3ccc(Sc4ccncc4)cc3CC[C@@H]12 [Example 115, (+)-(4aR)-(10bR)-4,10b-dimethyl-8-(4-pyridinylthio)-1,2,3,4,4a,5,6,10b-octahydrobenzo[f]quinolin-3-one]
96 | 4 | – | – | CN1C(=O)CC[C@]2(C)c3ccc(-c4ccccc4)cc3CC[C@@H]12 [Example 49, (+)-(4aR)-(10bR)-4-methyl-8-phenyl-10b-methyl-1,2,3,4,4a,5,6,10b-octahydrobenzo[f]quinolin-3-one]
82 | 40 | – | – | CN1C(=O)CC[C@]2(C)c3ccc(-c4cc(F)c(F)cc4F)cc3CC[C@@H]12 [Example 128, (+)-(4aR)-(10bR)-4-methyl-8-(2,4,5-trifluorophenyl)-10b-methyl-1,2,3,4,4a,5,6,10b-octahydrobenzo[f]quinolin-3-one]
55 | 40 | – | – | CN1C(=O)CC[C@]2(C)c3ccc(-c4cc(C(F)(F)F)ccc4Cl)cc3CC[C@@H]12 [Example 33, (+)-(4aR)-(10bR)-4-methyl-8-(2-chloro-5-trifluoromethylphenyl)-10b-methyl-1,2,3,4,4a,5,6,10b-octahydrobenzo[f]-quinolin-3-one]
92 | 31 | – | – | CN1C(=O)CC[C@]2(C)c3ccc(-c4c(F)c(F)c(Cl)c(F)c4F)cc3CC[C@@H]12 [Example 135, (+)-(4aR)-(10bR)-4-methyl-8-(4-chloro-2,3,5,6-tetrafluorophenyl)-10b-methyl-1,2,3,4,4a,5,6,10b-octahydrobenzo[f]-quinolin-3-one]
22 | 59 | – | – | C[C@]12CCC(=O)N[C@@H]1CCc1cc(Sc3cccc(Cl)c3)ccc12 [Example 8, (+)-(4aR)-(10bR)-8-(3-chlorophenylthio)-10b-methyl-1,2,3,4,4a,5,6,10b-octahydrobenzo[f]quinolin-3-one]
16 | 22 | – | – | COc1ccccc1Sc1ccc2c(c1)CC[C@H]1NC(=O)CC[C@]21C [Example 12, (+)-(4aR)-(10bR)-8-(2-methoxyphenylthio)-10b-methyl-1,2,3,4,4a,5,6,10b-octahydrobenzo[f]quinolin-3-one]
68 | 11 | – | – | CN1C(=O)CC[C@]2(C)c3ccc(-c4cccc(-c5ccccc5)c4)cc3CC[C@@H]12 [Example 55, (+)-(4aR)-(10bR)-4-methyl-8-(3-biphenyl)-10b-methyl-1,2,3,4,4a,5,6,10b-octahydrobenzo[f]quinolin-3-one]
22 | 48 | – | – | C[C@]12CCC(=O)N[C@@H]1CCc1cc(Sc3cccc4cccnc34)ccc12 [Example 20, (+)-(4aR)-(10bR)-8-(8-quinolinylthio)-10b-methyl-1,2,3,4,4a,5,6,10b-octahydrobenzo[f]quinolin-3-one]
93 | 94 | – | – | CCc1cccc2sc(Sc3ccc4c(c3)CC[C@H]3N(C)C(=O)CC[C@]43C)nc12 [Example 187, (+)-(4aR)-(10bR)-4-methyl-8-(4-ethyl-2-benzothiazolylthio)-10b-methyl-1,2,3,4,4a,5,6,10b-octahydrobenzo[f]quinolin-3-one]
100 | 32 | – | – | CN1C(=O)CC[C@]2(C)c3ccc(SCc4ccccc4)cc3CC[C@@H]12 [Example 136, (4aR)-(10bR)-8-benzylthio-4,10b-dimethyl-1,2,3,4,4a,5,6, 10b-octahydrobenzo[f]quinolin-3-one]
13 | 5 | – | – | CN1C(=O)CC[C@]2(C)c3ccc(-c4cccc(C(=O)NC(C)(C)C)c4)cc3CC[C@@H]12 [Example 34, (+)-(4aR)-(10bR)-4-methyl-8-(3-t-butylcarboxamidophenyl)-10b-methyl-1,2,3,4,4a,5,6,10b-octahydrobenzo[f]quinolin-3-one]
57 | 44 | – | – | CN1C(=O)CC[C@]2(C)c3ccc(Oc4ccc5ccccc5n4)cc3CC[C@@H]12 [Example 266, (+)-(4aR)-(10bR)-4-methyl-8-(2-quinolinyloxy)-10b-methyl-1,2,3,4,4a,5,6,10b-octahydrobenzo[f]quinolin-3-one]
79 | 42 | – | – | Cc1ccc(-c2ccc3c(c2)CC[C@H]2N(C)C(=O)CC[C@]32C)c2ccccc12 [Example 65, (+)-(4aR)-(10bR)-4-methyl-8-(1-[4-methyl]naphthyl)-10b-methyl-1,2,3,4,4a,5,6,10b-octahydrobenzo[f]quinolin-3-one]
28 | 12 | – | – | CN1C(=O)CC[C@]2(C)c3ccc(-c4ccncc4)cc3CC[C@@H]12 [Example 235, (+)-(4aR)-(10bR)-4-methyl-8-(4-pyridinyl)-10b-methyl-1,2,3,4,4a,5,6,10b-octahydrobenzo[f]quinolin-3-one]
76 | 61 | 44 | – | CN1C(=O)CC[C@]2(C)c3ccc(Sc4ccc5ccccc5c4)cc3CC[C@@H]12 [Example 98, (+)-(4aR)-(10bR)-4,10b-dimethyl-8-(2-naphthylthio)-1,2,3,4,-4a,5,6,10b-octahydrobenzo[f]quinolin-3-one]
27 | 42 | – | – | C[C@]12CCC(=O)N[C@@H]1CCc1cc(Sc3ccccn3)ccc12 [Example 21, (4aR)-(10bR)-8-(2-pyridinylthio)-10b-methyl-1,2,3,4,4a,5,6,10b-octahydrobenzo[f]quinolin-3-one]
77 | 10 | – | – | CN1C(=O)CC[C@]2(C)c3ccc(-c4cccc(C(F)(F)F)c4F)cc3CC[C@@H]12 [Example 208, (+)-(4aR)-(10bR)-4-methyl-8-(2-fluoro-3-trifluoromethyl-phenyl)-10b-methyl-1,2,3,4,4a,5,6,10b-octahydrobenzo[f]-quinolin-3-one]
97 | 32 | – | 100 | CN1C(=O)CC[C@]2(C)c3ccc(-c4cc(F)c(F)c(F)c4)cc3CC[C@@H]12 [Example 206, (+)-(4aR)-(10bR)-4-methyl-8-(3,4,5-trifluorophenyl)-10b-methyl-1,2,3,4,4a,5,6,10b-octahydrobenzo[f]quinolin-3-one]
11 | 23 | – | – | Cc1ccc(Sc2ccc3c(c2)CC[C@H]2NC(=O)CC[C@]32C)cc1 [Example 6, (+)-(4aR)-(10bR)-8-(4-methylphenylthio)-10b-methyl-1,2,3,4,4a,5,6,10b-octahydrobenzo [f]quinolin-3-one]
56 | 47 | – | – | CN1C(=O)CC[C@]2(C)c3ccc(-c4nc5cc(Cl)c(Cl)cc5s4)cc3CC[C@@H]12 [Example 263, (+)-(4aR)-(10bR)-4-methyl-8-(2-[5,6-dichloro]benzothiazolyl)-10b-methyl-1,2,3,4,4a,5,6,10b-octahydrobenzo[f]quinolin-3-one]
19 | 21 | – | – | CN1C(=O)CC[C@]2(C)c3ccc(-c4cc(C(C)(C)C)c(O)c(C(C)(C)C)c4)cc3CC[C@@H]12 [Example 30, (+)-(4aR)-(10bR)-4-methyl-8-(3,5-di [t-butyl]-4-hydroxyphenyl)-10b-methyl-1,2,3,4,4a,5,6,10b-octahydrobenzo[f]quinolin-3-one]
43 | 63 | – | – | CN1C(=O)CC[C@]2(C)c3ccc(Sc4ccc(-c5ccccc5)nn4)cc3CC[C@@H]12 [Example 171, (+)-(4aR)-(10bR)-4-methyl-8-(6-phenyl-3-pyridazinylthio)-10b-methyl-1,2,3,4,4a,5,6,10b-octahydrobenzo[f]quinolin-3-one]
59 | 56 | – | – | C[C@]12CCC(=O)N[C@@H]1CCc1cc(Sc3ccc4ccccc4n3)ccc12 [Example 19, (4aR)-(10bR)-8-(2-quinolinylthio)-10b-methyl-1,2,3,4,4a,5,6,10b-octahydrobenzo[f]quinolin-3-one]
